Source: patent US9409923B2, “Drug-fluorophore complex for specific detection of tumor cells” (KOREA INSTITUTE OF SCIENCE AND TECHNOLOGY, priority 2013, dated 2016)

Key:
[1] = in vivo; cited from earlier work
[2] = tested on: HCT-116 cells (colorectal cancer cells) including luciferase; assay: Specific in vivo imaging of tumor cells (fluorescence vs luminescence, IVIS) in mouse liver tumors; set-up: species or system Mice; details: 25 μM in PBS (pH 7.4), 50 μl dropped on open abdomen, observed after 3 min; FIGS. 2a-2d
Method: (§1) Mice were anesthetized with intraperitoneal injection of ketamine and xylazine, and their abdomens were cut open. HCT-116 cells (colorectal cancer cells) including luciferase were added at a concentration of 1×10^6 cells to 20 μl saline solution and injected into the left lobe of the liver to induce tumors in the mice. Four weeks after cell injection, the tumors were imaged as follows:
(§2) The compounds of Synthesis Examples 1-5 were dissolved in PBS (pH 7.4) to prepare 25 μM solutions. Mice were anesthetized intraperitoneally and their abdomens were open. 50 μl of each of the compounds was dropped using a 100 μl pipette. After 3 min, fluorescence and luminescence were observed using an imaging system (IVIS®).
FIGS. 2a to 2d are images showing fluorescence (2a) and luminescence (2b) from the fluorophore to which toremifene was not bonded, and images showing fluorescence (2c) and luminescence (2d) from the complex of the present invention in which the fluorophore was bonded to toremifene.

[3] = tested on: HCT-116 cells (colorectal cancer cells) including luciferase; assay: Ex vivo imaging on liver sections excised from mice; type: in vivo; details: FIGS. 3a-3d
Method: as §1, §2
Similarly to the procedure described above, ex vivo imaging was performed on liver sections excised from mice. The results are shown in FIGS. 3a to 3d (3a and 3b: fluorescence and luminescence images of the fluorophore, respectively; 3c and 3d: fluorescence and luminescence images of the drug-fluorophore complex, respectively).

Structure (SMILES)	Volume of distribution [1] [L/kg]	fluorescence in tumor-bearing liver compared with luminescence position [2]	fluorescence and luminescence in excised liver sections (ex vivo imaging) [3]
CNCCOc1ccc(/C(=C(/CCCl)c2ccccc2)c2ccccc2)cc1 [N-desmethyltoremifene]	8.3	–	–
CC1(C)S[C@@H]2[C@H](NC(=O)[C@H](N)c3ccccc3)C(=O)N2[C@H]1C(=O)O [Ampicillin]	0.38	–	–
CC[N+]1=C(/C=C/C=C/C=C2/N(CCCCCC(=O)N(C)CCOc3ccc(/C(=C(/CCCl)c4ccccc4)c4ccccc4)cc3)c3ccc4c(S(=O)(=O)O)cc(S(=O)(=O)O)cc4c3C2(C)C)C(C)(C)c2c1ccc1c(S(=O)(=O)O)cc(S(=O)(=O)[O-])cc21 [Synthesis Example 3, N-desmethyl toremifene-FCR675 Carboxylic Acid Complex]	–	fluorescence was observed in the section of the liver, which was the same as the position confirmed by luminescence	the same results of the in vivo imaging were observed in the ex vivo imaging
